A short description of data set [1]: logP by HPLC (EEC Directive 79/831 Annex V.A8). Format: physicochemical. To be noted: HPLC reversed-phase C18, method [a]: LC-MS, pH 2.7, 0.1% aqueous formic acid / acetonitrile, gradient 10% to 95% acetonitrile; for chromatographic logP: reversed-phase C18 HPLC column.
In data set [2] the test system is Blumeria graminis f.sp. hordei. The data set is described as follows: Blumeria graminis test (barley)/protective. Format: in vivo. To be noted: barley plants, protective spray, 500 ppm active ingredient, evaluation 7 days after inoculation.
For another data set, the system named is Leptosphaeria nodorum. The data set is described as follows: Leptosphaeria nodorum test (wheat)/protective. Format: in vivo. To be noted: wheat plants, protective spray, 500 ppm active ingredient, evaluation 8 days after inoculation.
The next data set concerns Sphaerotheca fuliginea. The data set is described as follows: Sphaerotheca test (cucumber)/protective. To be noted: cucumber plants, protective spray, 500 ppm active ingredient, evaluation 7 days after inoculation.
The next data set has as its system Venturia inaequalis. The data set is described as follows: Venturia test (apple)/protective. To be noted: apple plants, protective spray, 100 ppm active ingredient, evaluation 10 days after inoculation.
A further data set deals with Septoria tritici. The data set is described as follows: Septoria tritici test (wheat)/protective. To be noted: wheat plants, protective spray, 500 ppm active ingredient, evaluation 21 days after inoculation. Format: in vivo.
In the next data set the test system is Puccinia triticina. The data set is described as follows: Puccinia triticina test (wheat)/protective. Format: in vivo. To be noted: wheat plants, protective spray, 500 ppm active ingredient, evaluation 8 days after inoculation. The source says:
Evaluation follows 8 days after the inoculation.

For a further data set, the system named is Leptosphaeria maculans. The data set is described as follows: Leptosphaeria test (oilseed rape)/seed treatment. To be noted: rapeseed treatment, dose 50 g/dt, greenhouse 10° C. 14 days and 18° C. 7 days. Format: in vivo. On the procedure: The test was conducted under greenhouse conditions. […] treated with an inventive active compound or a combination of inventive active compounds were sown in 6×6 cm vessels, into a mixture of steamed field soil and to sand (1:1). The test compound(s) were dissolved in N-methyl-2-pyrrolidone and diluted to the desired concentration with water. Perlite was inoculated with spores of Leptosphaeria maculans. The infected perlite was distributed between the treated […]. The seeds were covered with a top layer of steamed field soil and sand (1:1) and incubated in a greenhouse at 10° C. for 14 days and at 18° C. for 7 days.

For the next data set, the system named is Fusarium culmorum. The data set is described as follows: Fusarium test (wheat)/seed treatment. Format: in vivo. To be noted: dose 50 g/dt, greenhouse 20° C. 14 days. On the procedure: (§1) The test was conducted under greenhouse conditions. Wheat seeds treated with an inventive active compound or a combination of inventive active compounds were sown in 6×6 cm vessels, into a mixture of steamed field soil and sand (1:1). The test compound(s) were dissolved in N-methyl-2-pyrrolidone and diluted to the desired concentration with water. Wheat kernels were inoculated with spores of Fusarium culmorum. The infected and ground kernels were distributed between the treated wheat seeds. The seeds were covered with a top layer of clay granules and incubated in a greenhouse at 20° C. for 14 days. Evaluation was effected by counting the plants which emerged.

The test system of the next data set is Rhizoctonia solani. The data set is described as follows: Rhizoctonia test (cotton)/seed treatment. Format: in vivo. To be noted: cottonseed treatment, dose 50 g/dt, greenhouse 20° C. 7 days. The procedure:
The test was conducted under greenhouse conditions. Cottonseeds treated with an inventive active compound or a combination of inventive active compounds were sown in 6×6 cm vessels, into a mixture of steamed field soil and sand (1:1). The test compound(s) were dissolved in N-methyl-2-pyrrolidone and diluted to the desired concentration with water. Perlite was inoculated with spores of Rhizoctonia solani. The infected perlite was distributed between the treated cottonseeds. The seeds were covered with a top layer of clay granules and incubated in a greenhouse at 20° C. for 7 days.

For another data set, the system named is Microdochium nivale. The data set is described as follows: Microdochium test (wheat)/seed treatment. To be noted: dose 50 g/dt, greenhouse 10° C. 21 days. Format: in vivo. The procedure: as §1, with “Microdochium nivale.” for “Fusarium culmorum.”, “steamed field soil and sand (1:1)” for “clay granules”, “10°” for “20°”, “21” for “14”, “days.” for “days. Evaluation was effected by counting the plants which emerged.”

Description for Sphaerotheca fuliginea: • Solvent: 49 parts by weight of N,N-dimethylformamide • Emulsifier: 1 part by weight of alkylaryl polyglycol ether
To produce an appropriate active ingredient formulation, 1 part by weight of active ingredient is mixed with the specified amounts of solvent and emulsifier, and the concentrate is diluted with water to the desired concentration. To test for protective activity, young cucumber plants are sprayed with the formulation of active ingredient at the stated application rate. 1 day after the treatment, the plants are inoculated with a spore suspension of Sphaerotheca fuliginea. The plants are then placed in a greenhouse at 70% relative air humidity and a temperature of 23° C. Evaluation follows 7 days after the inoculation.
Description for Venturia inaequalis: • Solvent: 24.5 parts by weight of acetone • 24.5 parts by weight of dimethylacetamide • Emulsifier: 1 part by weight of alkylaryl polyglycol ether
To produce an appropriate active ingredient formulation, 1 part by weight of active ingredient is mixed with the specified amounts of solvent and emulsifier, and the concentrate is diluted with water to the desired concentration. To test for protective activity, young plants are sprayed with the active ingredient formulation at the stated application rate. After the spray coating has dried on, the plants are inoculated with an aqueous conidia suspension of the apple scab pathogen Venturia inaequalis and then remain in an incubation cabin at about 20° C. and 100% relative air humidity for 1 day. The plants are then placed in a greenhouse at about 21° C. and a relative air humidity of about 90%. Evaluation follows 10 days after the inoculation.

As a reminder, the chromatographic logP is a lipophilicity value derived from retention on a column. Read a low chromatographic logP as lower lipophilicity. Regarding `CC(C)(C)C(O)(COc1ccc(Cl)cc1)c1cnc(S)s1` (stereo not drawn) [Compound 12], in [1], the chromatographic logP turned out to be 3.06. The values for the efficacy (in data set [2]; with Leptosphaeria nodorum; in the data set on Sphaerotheca fuliginea) were 89%, 86% and 98%, respectively.
For `CO/N=C/c1ccc(OCC(O)(c2cncs2)C(C)(C)C)cc1` (stereo not drawn) [Compound 3], the efficacy turned out to be 100% in the data set on Venturia inaequalis; 100% in data set [2]; 83% with Septoria tritici; 89% with Puccinia triticina; 92% in the data set on Leptosphaeria nodorum.
For the molecule `CC(C)(/C=C/Cl)C(O)(COc1ccc(I)cc1)c1cncs1` (stereo not drawn) [Compound 53], the logP result in data set [1] was “logP 3.92^[a]; [M + H]^+ = 450”. Also, the efficacy in [2] worked out at 94%; with Septoria tritici it was 100%; in the data set on Puccinia triticina, 100%; in the data set on Leptosphaeria nodorum it was 83%; in the data set on Sphaerotheca fuliginea it was 94%.
With `CC1(C(O)(COc2ccc(Br)cc2)c2cncs2)CCCCC1` (stereo not drawn) [Compound 33], the efficacy with Venturia inaequalis stood at 99%; in data set [2], 89%; with Puccinia triticina, 83%; in the data set with Sphaerotheca fuliginea, 100%. In data set [1], the logP result is “logP 4.37^[a]; [M + H]^+ = 396/398”.
For `OC(Cc1cncs1)(Cc1ccccc1Cl)C1(Cl)CC1` (stereo not drawn) [Compound 57], the efficacy worked out at 100% in the data set with Venturia inaequalis; 100% in data set [2]; 70% with Septoria tritici; 88% in the data set on Leptosphaeria nodorum; 100% in the data set on Sphaerotheca fuliginea. Also, the “efficiency (emerged plants)” value was determined as 80% with Leptosphaeria maculans, 89% in the data set with Fusarium culmorum and 78% in the data set on Microdochium nivale. For the same molecule, in the data set with Rhizoctonia solani, the “efficiency (emerged and diseased plants)” value was 80%.
As for `OC(Cc1cncs1)(Cc1ccccc1F)C1(Cl)CC1` (stereo not drawn) [Compound 60], the efficacy in the data set on Venturia inaequalis came out at 100%; in [2] it was 100%; in the data set with Septoria tritici, 94%; in the data set on Puccinia triticina, 95%; in the data set on Leptosphaeria nodorum, 100%; with Sphaerotheca fuliginea, 100%. Further, the entries for the “efficiency (emerged plants)” value in the data set with Leptosphaeria maculans, in the data set on Fusarium culmorum and in the data set on Microdochium nivale were 80%, 89% and 100%, respectively. In data set [1], the logP result is “logP 3.06^[a]; [M + H]^+ = 312”. Also, the “efficiency (emerged and diseased plants)” value with Rhizoctonia solani came out at 90%.
Regarding `CC(C)(C)C(O)(COc1ccc(I)cc1)c1cncs1` (stereo not drawn) [Compound 1], the efficacy in the data set on Venturia inaequalis was found to be 99%; in data set [2] it was 100%; in the data set on Septoria tritici, 100%; with Puccinia triticina, 100%; with Leptosphaeria nodorum, 100%; in the data set on Sphaerotheca fuliginea, 100%. For the same molecule, the “efficiency (emerged plants)” value with Leptosphaeria maculans is 70%; in the data set on Fusarium culmorum, 100%. Also, the “efficiency (emerged and diseased plants)” value in the data set on Rhizoctonia solani is listed as 70%.
For the molecule `CC(CF)(CF)C(O)(COc1ccc(I)cc1)c1cncs1` (stereo not drawn) [Compound 4], in data set [1], the chromatographic logP was 3.16. The efficacy (in [2]; in the data set on Septoria tritici; in the data set with Puccinia triticina; with Leptosphaeria nodorum; with Sphaerotheca fuliginea) was 100% throughout.
Take `CC(C)(C)C(O)(COc1ccc(Br)cc1)c1cncs1` (stereo not drawn) [Compound 2]: the efficacy in the data set with Venturia inaequalis amounted to 93%; in [2] it was 100%; with Septoria tritici it was 100%; in the data set on Puccinia triticina, 100%; in the data set on Leptosphaeria nodorum it was 100%; in the data set on Sphaerotheca fuliginea, 99%.
Consider `CC(C)(C)C(O)(COc1ccc(C2CC2)cc1)c1cncs1` (stereo not drawn) [Compound 79], for which the efficacy is given as 100% with Venturia inaequalis; 100% in data set [2]; 88% with Septoria tritici; 86% in the data set with Leptosphaeria nodorum; 93% in the data set with Sphaerotheca fuliginea. The logP entry in data set [1] is “logP 3.73^[a]; [M + H]^+ = 318”.
`CC(C)(C)C(O)(COc1ccc(F)cc1)c1cncs1` (stereo not drawn) [Compound 42]: the logP result in [1] is “logP 2.91^[a]; [M + H]^+ = 296”. Also, the efficacy stood at 100% in data set [2], 89% in the data set with Puccinia triticina and 94% with Sphaerotheca fuliginea.
Turning to `CC(C)(C)C(O)(COc1ccc(SC(F)(F)F)cc1)c1cncs1` (stereo not drawn) [Compound 41], the efficacy was 95% in the data set with Venturia inaequalis; 100% in data set [2]; 71% in the data set on Septoria tritici; 100% with Puccinia triticina; 100% in the data set on Leptosphaeria nodorum; 95% with Sphaerotheca fuliginea. In data set [1], the logP result is “logP 3.98^[a]; [M + H]^+ = 378”.
Regarding `CC(C)(C)C(O)(COc1ccc(OC(F)(F)F)cc1)c1cncs1` (stereo not drawn) [Compound 20], the efficacy in [2] is listed as 100%; with Septoria tritici it was 100%; with Puccinia triticina, 100%; in the data set with Leptosphaeria nodorum it was 100%; with Sphaerotheca fuliginea, 88%.
In the case of `CC1(C(O)(COc2ccc(Cl)cc2)c2cncs2)CC1` (stereo not drawn) [Compound 14], the results for the efficacy in the data set with Venturia inaequalis and in the data set with Sphaerotheca fuliginea were 98% and 95%, respectively. Besides, the logP entry in data set [1] was “logP 3.11^[a]; [M + H]^+ = 310; 312”.
On to `CC1(C(O)(COc2ccc(I)cc2)c2cncs2)CCCCC1` (stereo not drawn) [Compound 25], for which the logP result in [1] was “logP 4.53^[a]; [M + H]^+ = 444”. Moreover, the efficacy in the data set on Septoria tritici came to 86%; with Puccinia triticina it was 78%; with Sphaerotheca fuliginea it was 100%.

Source of the values: patent US8440836B2, “Heterocyclic alkanol derivatives” (Bayer Intellectual Property GmbH, priority 2010, dated 2013).
